Values joined by “and” are separate entries in the source; they are usually repeats but may differ in a detail not shown here. Equal values may be shown once.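 Cultured in 96-well plates, cells were exposed to test compound for 48 hours across five concentrations. Here, GI50 denotes the concentration required for 50% inhibition of growth. TGI: concentration producing complete growth inhibition.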 Where a SMILES comes first, the peptide text is derived from it. [ ]: non-standard residue; d: D form. The star is where a group is joined. Bn2Val = CC(C)[C@@H](C(=O)*)N(Cc1ccccc1)Cc1ccccc1; NH(3,4-diMeO-benzyl) = COc1ccc(CN*)cc1OC; NMeV = CN[C@H](C(=O)O)C(C)C; dNMeA = CN[C@H](C)C(=O)O
Tests used:
Assay in all cases: NCI tumour cell line growth inhibition, 48 h
PC-3 prostate = system: PC-3 prostate
HCT-15 colon = system: HCT-15 colon
MOLT-4 leukemia = system: MOLT-4 leukemia
SNB-75 CNS = system: SNB-75 CNS
SK-MEL-28 melanoma = system: SK-MEL-28 melanoma
UACC-62 melanoma = system: UACC-62 melanoma
ACHN renal = system: ACHN renal
HCT-116 colon = system: HCT-116 colon
SF-295 CNS = system: SF-295 CNS
OVCAR-3 ovarian = system: OVCAR-3 ovarian

SMILES	GI50 (PC-3 prostate)	TGI (PC-3 prostate)	GI50 (HCT-15 colon)	TGI (HCT-15 colon)	GI50 (MOLT-4 leukemia)	TGI (MOLT-4 leukemia)	GI50 (SNB-75 CNS)	TGI (SNB-75 CNS)	GI50 (SK-MEL-28 melanoma)	TGI (SK-MEL-28 melanoma)	GI50 (UACC-62 melanoma)	TGI (UACC-62 melanoma)	GI50 (ACHN renal)	TGI (ACHN renal)	GI50 (HCT-116 colon)	TGI (HCT-116 colon)	GI50 (SF-295 CNS)	TGI (SF-295 CNS)	GI50 (OVCAR-3 ovarian)	TGI (OVCAR-3 ovarian)
COc1ccc(CNC(=O)[C@@H](C)N(C)C(=O)[C@@H]2CCCN2C(=O)[C@H](C(C)C)N(C)C(=O)[C@@H](NC(=O)[C@H](C(C)C)N(Cc2ccccc2)Cc2ccccc2)C(C)C)cc1OC (Bn2Val-V[NMeV]P[dNMeA]-{NH(3,4-diMeO-benzyl)})	5.61 µM	26 µM and 24.5 µM	5.98 µM	21.5 µM and 28.8 µM	0.475 µM	23.9 µM and 11.7 µM	3.54 µM	16.6 µM and 15.9 µM	13.5 µM	17.6 µM and 28.3 µM	13.5 µM	14 µM and 27.2 µM	8.21 µM	14.9 µM and 23.9 µM	4.87 µM	14.4 µM and 17.7 µM	9.29 µM	13.8 µM and 23 µM	10 µM	14.6 µM and 24.7 µM
O=C1CCC(NC(=O)c2ccccc2)C(=O)N1 (stereo not given)	–	> 100 µM	–	> 100 µM	–	16.9 µM	–	> 100 µM	–	> 100 µM	–	> 100 µM	–	> 100 µM	–	> 100 µM	–	> 100 µM	–	> 100 µM
CNC(=O)c1cc(Oc2ccc3c(c2)sc2nc(-c4ccc(N)cc4)cn23)ccn1	0.324 µM	> 100 µM	0.122 µM	> 100 µM	0.26 µM	> 60.8 µM	0.286 µM	> 100 µM	4.99 µM	> 100 µM	0.0982 µM	> 100 µM	0.75 µM	> 100 µM	0.211 µM	> 100 µM	0.104 µM	> 100 µM	0.198 µM	0.67 µM
Fc1ccc(-c2nn(-c3ccccc3)cc2-c2nc3ccccc3o2)cc1	0.491 µM	> 100 µM	1.83 µM	39 µM	3.62 µM	> 100 µM	9.89 µM	33.4 µM	13.4 µM	39.4 µM	5.5 µM	19.6 µM	4.1 µM	> 100 µM	2.5 µM	20.7 µM	2.32 µM	8.3 µM	2.87 µM	48.7 µM
ClCc1ccccc1CSc1ncnc2nc[nH]c12	> 60 µM	> 60 µM	> 60 µM	> 60 µM	> 60 µM	> 60 µM	> 60 µM	> 60 µM	> 60 µM	> 60 µM	> 60 µM	> 60 µM	> 60 µM	> 60 µM	> 60 µM	> 60 µM	> 60 µM	> 60 µM	> 60 µM	> 60 µM
COc1ccc(CN2CCCC(C(=O)c3ccc(C(F)(F)F)cc3)C2)c(O)c1 (stereo not given)	26.3 µM	> 100 µM	14.6 µM	36 µM	27.5 µM	> 100 µM	18.4 µM	> 100 µM	17.1 µM	43.9 µM	12.4 µM	31.3 µM	33.6 µM	> 100 µM	21.2 µM	> 100 µM	16.8 µM	45.9 µM	36.2 µM	> 100 µM
O=C1c2ccccc2-c2c1c1cc3c(cc1c(=O)n2CCCCl)OCO3	42.7 µM	> 100 µM	> 100 µM	> 100 µM	35 µM	> 100 µM	0.58 µM	> 100 µM	19.2 µM	> 100 µM	30.5 µM	> 100 µM	24.5 µM	98.7 µM	17.7 µM	90.1 µM	16.2 µM	46.8 µM	11.4 µM	32 µM
O=C(O)/C=C/C(=O)Nc1ncn[nH]1	–	> 100 µM	–	> 100 µM	–	> 100 µM	–	> 100 µM	–	> 100 µM	–	> 100 µM	–	> 100 µM	–	> 100 µM	–	> 100 µM	–	> 100 µM
N#Cc1cnn2ccn(C3OC(COC(=O)c4ccccc4)C(OC(=O)c4ccccc4)C3OC(=O)c3ccccc3)c12 (stereo not given)	–	21.5 µM	–	> 21.5 µM	–	> 21.5 µM	–	21.5 µM	–	> 21.5 µM	–	> 21.5 µM	–	> 21.5 µM	–	> 21.5 µM	–	> 21.5 µM	–	> 21.5 µM

Reference: PubChem BioAssay (NCI)
